Results on eleven compounds are retold here after PubChem BioAssay (NCI).

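Results reflect a 48-hour exposure of cells in 96-well plates to compound at five concentrations. At the TGI there is no net growth.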 Some results are limits rather than exact numbers.

Some test systems named below: UACC-257 melanoma; SK-OV-3 ovarian; MDA-MB-231 breast; A549 NSCLC; 786-0 renal; K-562 leukemia; TK-10 renal; SNB-19 CNS; NCI-H522 lung; SF-268 CNS; LOX IMVI melanoma; OVCAR-3 ovarian; HL-60(TB) leukemia; BT-549 breast.
Holding throughout (assay): NCI tumour cell line growth inhibition, 48 h

As for `O=C(CSc1nc2ccc(I)cc2c(=O)n1Cc1ccccc1)NN1C(=O)CSC1c1ccccc1` (stereo unspecified), the TGI is 57.5 µM with UACC-257 melanoma; 67.9 µM in the assay on SK-OV-3 ovarian; 65.6 µM with MDA-MB-231 breast; greater than 100 µM in the assay on A549 NSCLC; greater than 100 µM with 786-0 renal; greater than 100 µM in the assay with K-562 leukemia. Besides, the TGI was 86 µM in the assay with TK-10 renal; greater than 100 µM with SNB-19 CNS; 35.5 µM in the assay on NCI-H522 lung; 79.1 µM in the assay with SF-268 CNS; 39.1 µM with LOX IMVI melanoma; 32.4 µM in the assay on OVCAR-3 ovarian. In the assay with HL-60(TB) leukemia, this compound returned a TGI of 58.9 µM.

Consider `O=C1COc2cc3c(cc2N1)SCCC(=O)N3`, for which the TGI with UACC-257 melanoma, in the assay with SK-OV-3 ovarian, with A549 NSCLC, with 786-0 renal, in the assay with K-562 leukemia and with TK-10 renal was greater than 100 µM in each case. For the same compound, the TGI in the assay with SNB-19 CNS, in the assay on NCI-H522 lung, with SF-268 CNS, in the assay on OVCAR-3 ovarian and in the assay on HL-60(TB) leukemia was greater than 100 µM throughout.

For `CC[C@H]1C=CCC[C@@]2(C[C@@H]3CC[C@H]4[C@@H](C(=O)OCCCCCCCCCCCCCCCC(=O)N(CCCNC(C)=O)C[C@H](CCNC(C)=O)OC(C)=O)[C@@]5(CCC[C@@H](C)O5)NC(=[N+]34)N2)O1`, the TGI with BT-549 breast was determined as 3.5 µM; with UACC-257 melanoma, 2.68 µM; in the assay on SK-OV-3 ovarian it was 3.12 µM; in the assay on A549 NSCLC, 3.42 µM; in the assay with 786-0 renal it was 3.4 µM; in the assay on K-562 leukemia, 2.41 µM. Further, the TGI with TK-10 renal amounted to 2.99 µM; with SNB-19 CNS, 3.07 µM; in the assay with NCI-H522 lung it was 2.63 µM; in the assay on SF-268 CNS, 3.38 µM; with LOX IMVI melanoma, 3.16 µM; in the assay with OVCAR-3 ovarian, 2.03 µM. In the assay on HL-60(TB) leukemia, the TGI is 2.91 µM.

Turning to `CC1(C)N([O-])[N+](=O)C1(Br)c1ccccc1` (stereo unspecified), the TGI in the assay with UACC-257 melanoma, with SK-OV-3 ovarian, in the assay on MDA-MB-231 breast, with A549 NSCLC, in the assay on 786-0 renal and in the assay on K-562 leukemia was greater than 100 µM throughout. For the same compound, the TGI with TK-10 renal, in the assay with SNB-19 CNS, in the assay on SF-268 CNS, in the assay with LOX IMVI melanoma, in the assay with OVCAR-3 ovarian and in the assay with HL-60(TB) leukemia was greater than 100 µM each time.

Regarding `CC1(C)CC2C(/C1=N/O)C1(C)CCCC2(C)C1O` (stereo unspecified), the TGI with BT-549 breast, in the assay with UACC-257 melanoma, with SK-OV-3 ovarian, with A549 NSCLC, with 786-0 renal and with K-562 leukemia was greater than 100 µM in each case. For the same compound, the TGI in the assay with TK-10 renal, in the assay with SNB-19 CNS, in the assay on NCI-H522 lung, with SF-268 CNS, in the assay on LOX IMVI melanoma and in the assay with OVCAR-3 ovarian was greater than 100 µM in each case. Besides, in the assay with HL-60(TB) leukemia, the TGI was greater than 100 µM.

Take `COc1ccc(-c2cc(=O)c3ccc(F)cc3[nH]2)cc1`: the TGI in the assay with UACC-257 melanoma, with SK-OV-3 ovarian, with A549 NSCLC, in the assay with 786-0 renal, in the assay on K-562 leukemia and with TK-10 renal was greater than 100 µM in each case. In addition, the TGI in the assay on SNB-19 CNS, in the assay with NCI-H522 lung, in the assay with SF-268 CNS, in the assay with LOX IMVI melanoma, in the assay on OVCAR-3 ovarian and with HL-60(TB) leukemia was greater than 100 µM in each case.

In the case of `COc1ccc(C(c2cc(OC)c(OC)c(OC)c2)N2C(=O)CCC2C(=O)O)cc1` (stereo unspecified), the TGI in the assay on UACC-257 melanoma, in the assay on SK-OV-3 ovarian, in the assay on MDA-MB-231 breast, with A549 NSCLC, in the assay with 786-0 renal and in the assay on K-562 leukemia was greater than 100 µM throughout. Further, the TGI in the assay on TK-10 renal, in the assay with SNB-19 CNS, in the assay on NCI-H522 lung, in the assay on SF-268 CNS, with LOX IMVI melanoma and in the assay on OVCAR-3 ovarian was greater than 100 µM in each case. In the assay with HL-60(TB) leukemia, this compound returned a TGI greater than 100 µM.

In the case of `O=C(NN1C(=O)C(Cl)C1c1cccc(Cl)c1)c1ccccc1O` (stereo unspecified), the TGI in the assay with UACC-257 melanoma, with SK-OV-3 ovarian, in the assay with A549 NSCLC, with 786-0 renal, in the assay with K-562 leukemia and in the assay with TK-10 renal was greater than 100 µM each time. In addition, the TGI in the assay with SNB-19 CNS, with NCI-H522 lung, with SF-268 CNS, with LOX IMVI melanoma, with OVCAR-3 ovarian and with HL-60(TB) leukemia was greater than 100 µM each time.

As to `C/C(=C(/C)c1cc[n+](C)cc1)c1cc[n+](C)cc1`, the TGI in the assay with UACC-257 melanoma, in the assay on SK-OV-3 ovarian, in the assay on A549 NSCLC, in the assay with 786-0 renal, in the assay with K-562 leukemia and with TK-10 renal was greater than 75 µM throughout. For the same compound, the TGI in the assay with SNB-19 CNS, in the assay with NCI-H522 lung, in the assay on SF-268 CNS, in the assay with LOX IMVI melanoma, in the assay with OVCAR-3 ovarian and in the assay on HL-60(TB) leukemia was greater than 75 µM throughout.

Take `[O-]/[N+](=N/c1ncc(-c2ccccc2)cn1)c1ncc(-c2ccccc2)cn1`: the TGI with UACC-257 melanoma, in the assay with SK-OV-3 ovarian, with MDA-MB-231 breast, with A549 NSCLC, with 786-0 renal and with K-562 leukemia was greater than 100 µM in each case. Besides, the TGI is greater than 100 µM with TK-10 renal; greater than 100 µM in the assay on SNB-19 CNS; 32.3 µM with NCI-H522 lung; greater than 100 µM in the assay with SF-268 CNS; greater than 100 µM in the assay with LOX IMVI melanoma; greater than 100 µM in the assay with OVCAR-3 ovarian. This compound also yielded a TGI in the assay with HL-60(TB) leukemia greater than 100 µM.

As for `Cc1ccccc1C1CC(=O)CC(c2ccccc2C)C12C(=O)NC(=S)NC2=O` (stereo unspecified), the TGI in the assay on UACC-257 melanoma was 52.4 µM; with SK-OV-3 ovarian it was greater than 100 µM; with MDA-MB-231 breast it was 90.1 µM; in the assay with A549 NSCLC, greater than 100 µM; in the assay on 786-0 renal, greater than 100 µM; with K-562 leukemia it was greater than 100 µM. The TGI in the assay on TK-10 renal was greater than 100 µM; in the assay with SNB-19 CNS it was greater than 100 µM; with SF-268 CNS it was greater than 100 µM; in the assay with LOX IMVI melanoma, 35.8 µM; in the assay with OVCAR-3 ovarian, 82.8 µM; in the assay on HL-60(TB) leukemia it was 59.2 µM.
